Tests used:
[1] = Selectivity ratio of IC50 for cytotoxicity against human WI-38 cells to IC50 for antitrypanosomal activity against Trypanosoma brucei rhodesiense IL-1501; assay type: toxicity, cell-based
[2] = tested on: Trypanosoma brucei rhodesiense; experiment: Antitrypanosomal activity against blood stream form of Trypanosoma brucei rhodesiense IL-1501 assessed as growth inhibition incubated for 69 hrs by alamar blue staining based microplate fluorescence scanner analysis; assay type: functional, organism-based; details: IL-1501, 69 h
[3] = Growth inhibition of human WI-38 cells incubated for 72 hrs by MTT assay; assay type: toxicity, cell-based

Structure (SMILES)	selectivity ratio [1]	IC50 [2] [µM]	IC50 at 72 h [3] [µM]
C=CCCC/C=C/C=C/[C@H]1OC(=O)C[C@@H]2O[C@H](C[C@H](O)C[C@H](C)C[C@@H](O)C1(C)C)C[C@H](O[C@@H]1OC[C@@H](OC)[C@H](OC)[C@H]1O)C2(C)C	5	11	55
C=CCCC/C=C/C=C/[C@H]1OC(=O)C[C@@H]2O[C@H](C[C@H](O)C[C@H](C)C[C@@H](O)C1(C)C)C[C@H](O[C@@H]1OC[C@@H](OC)[C@H](O)[C@H]1O)C2(C)C	> 15	12	> 150
CCCCC/C=C/C=C/[C@H]1OC(=O)C[C@@H]2O[C@H](C[C@H](O)C[C@H](C)C[C@@H](O)C1(C)C)C[C@H](O[C@@H]1OC[C@@H](OC)[C@H](O)[C@H]1O)C2(C)C	–	14	49
C#CCCC/C=C/C=C/[C@H]1OC(=O)C[C@@H]2O[C@H](C[C@H](O)C[C@H](C)C[C@@H](O)C1(C)C)C[C@H](O[C@@H]1OC[C@@H](OC)[C@H](OC)[C@H]1O)C2(C)C	> 15	11	> 150
N=C(N)c1ccc(OCCCCCOc2ccc(C(=N)N)cc2)cc1 [PENTAMIDINE]	–	0.006	–

— ChEMBL document CHEMBL5370669, “Isolation and Structure Determination of Akunolides, Macrolide Glycosides from a Marine Okeania sp. Cyanobacterium” (J Nat Prod, 2023)
